Tests used:
Prunus dulcis = assay: Inhibition of sweet almond beta-glucosidase using p-nitrophenyl glycoside as substrate assessed as residual activity at 1 mM after 25 mins by spectrophotometer analysis
Helix pomatia = assay: Inhibition of Helix pomatia beta-mannosidase using p-nitrophenyl glycoside as substrate assessed as residual activity at 1 mM after 25 mins by spectrophotometer analysis
[1] = biological target: Beta-galactosidase (Escherichia coli) (UniProt Q8VNN2); assay: Inhibition of Escherichia coli beta-galactosidase using p-nitrophenyl glycoside as substrate assessed as residual activity at 1 mM after 25 mins by spectrophotometer analysis
Chain of Beta-galactosidase (Escherichia coli) (Q8VNN2 whole entry, looked up): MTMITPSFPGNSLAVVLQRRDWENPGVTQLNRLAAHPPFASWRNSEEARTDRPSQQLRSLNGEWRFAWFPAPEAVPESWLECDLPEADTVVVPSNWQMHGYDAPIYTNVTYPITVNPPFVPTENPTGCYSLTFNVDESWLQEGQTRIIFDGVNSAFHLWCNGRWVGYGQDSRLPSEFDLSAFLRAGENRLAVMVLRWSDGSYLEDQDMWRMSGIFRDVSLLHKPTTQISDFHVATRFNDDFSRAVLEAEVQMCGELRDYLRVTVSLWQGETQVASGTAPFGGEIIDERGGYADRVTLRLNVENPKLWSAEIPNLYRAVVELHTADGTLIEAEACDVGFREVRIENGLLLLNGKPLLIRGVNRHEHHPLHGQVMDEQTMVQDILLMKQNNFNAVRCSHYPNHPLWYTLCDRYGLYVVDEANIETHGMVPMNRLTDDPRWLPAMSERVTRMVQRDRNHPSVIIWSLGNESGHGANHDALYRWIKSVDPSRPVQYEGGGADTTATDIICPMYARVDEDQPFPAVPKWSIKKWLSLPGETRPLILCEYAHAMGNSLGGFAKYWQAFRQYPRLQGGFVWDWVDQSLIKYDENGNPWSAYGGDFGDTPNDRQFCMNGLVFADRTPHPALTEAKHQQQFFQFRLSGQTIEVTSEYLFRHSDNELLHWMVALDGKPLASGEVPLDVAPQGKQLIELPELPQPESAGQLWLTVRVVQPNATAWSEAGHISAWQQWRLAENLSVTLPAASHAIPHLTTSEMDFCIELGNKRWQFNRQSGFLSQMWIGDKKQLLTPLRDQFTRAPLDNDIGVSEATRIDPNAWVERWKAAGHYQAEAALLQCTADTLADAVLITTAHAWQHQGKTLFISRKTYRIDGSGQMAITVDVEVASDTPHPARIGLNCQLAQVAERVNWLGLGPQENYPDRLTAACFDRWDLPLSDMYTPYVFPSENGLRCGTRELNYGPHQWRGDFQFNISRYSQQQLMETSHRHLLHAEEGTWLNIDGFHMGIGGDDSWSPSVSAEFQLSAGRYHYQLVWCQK

Alpha-galactosidase = Alpha-galactosidase (Coffea arabica, UniProt Q42656); assay: Competitive inhibition of green coffee bean alpha-galactosidase using p-nitrophenyl glycoside as substrate by Lineweaver-Burk plot analysis
Chain of Alpha-galactosidase (Q42656 whole entry): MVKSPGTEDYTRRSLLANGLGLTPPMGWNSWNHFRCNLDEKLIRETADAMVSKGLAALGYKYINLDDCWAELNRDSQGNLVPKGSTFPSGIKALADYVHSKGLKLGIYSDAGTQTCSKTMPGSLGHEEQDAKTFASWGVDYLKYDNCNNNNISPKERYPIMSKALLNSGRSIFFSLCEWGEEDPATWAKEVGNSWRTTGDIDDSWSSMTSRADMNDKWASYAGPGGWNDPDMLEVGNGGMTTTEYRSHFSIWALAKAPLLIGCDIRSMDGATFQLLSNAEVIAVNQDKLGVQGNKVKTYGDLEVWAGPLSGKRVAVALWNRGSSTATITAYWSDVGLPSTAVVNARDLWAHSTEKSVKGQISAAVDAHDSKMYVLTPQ

Canavalia ensiformis = assay: Inhibition of jack bean alpha-mannosidase using p-nitrophenyl glycoside as substrate assessed as residual activity at 1 mM after 25 mins by spectrophotometer analysis
[2] = biological target: Alpha-galactosidase (Coffea arabica) (UniProt Q42656); assay: Inhibition of green coffee bean alpha-galactosidase using p-nitrophenyl glycoside as substrate assessed as residual activity at 1 mM after 25 mins by spectrophotometer analysis
Chain of Alpha-galactosidase (Coffea arabica) (Q42656 16-378 limits assumed): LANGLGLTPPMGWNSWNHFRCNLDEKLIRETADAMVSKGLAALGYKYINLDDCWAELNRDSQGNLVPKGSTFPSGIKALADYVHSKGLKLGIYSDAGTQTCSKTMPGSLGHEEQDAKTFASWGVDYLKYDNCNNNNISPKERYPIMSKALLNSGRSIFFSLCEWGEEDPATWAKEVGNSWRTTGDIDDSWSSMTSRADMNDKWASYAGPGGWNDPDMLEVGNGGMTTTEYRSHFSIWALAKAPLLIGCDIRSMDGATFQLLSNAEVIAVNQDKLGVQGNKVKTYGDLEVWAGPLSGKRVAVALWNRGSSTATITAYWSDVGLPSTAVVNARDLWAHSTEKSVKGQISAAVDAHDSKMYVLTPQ

[3] = system: Geobacillus stearothermophilus; assay: Inhibition of Bacillus stearothermophilus alpha-glucosidase using p-nitrophenyl glycoside as substrate assessed as residual activity at 1 mM after 25 mins by spectrophotometer analysis
[4] = Competitive inhibition of sweet almond beta-glucosidase using p-nitrophenyl glycoside as substrate by Lineweaver-Burk plot analysis; parameters: species or system Prunus dulcis

Compound	Activity (Prunus dulcis) [%]	Activity (Helix pomatia) [%]	Activity [1] [%]	Ki (Alpha-galactosidase) [µM]	Activity (Canavalia ensiformis) [%]	Activity [2] [%]	Activity [3] [%]	Ki [4] [µM]
O=C(O)[C@@H]1C[C@H](O)[C@@H](CO)N1	115	99.3	90.7	–	82	95.2	110	–
OC[C@@H]1C[C@H](O)[C@@H](CO)N1	1.7	97	53.5	–	102	50.4	12.8	29.2
O=C(NCCP(=O)(O)O)[C@@H]1C[C@H](O)[C@@H](CO)N1	83.6	93.7	55.8	–	83.9	107	97.1	–

Continued, values first:

Activity (Prunus dulcis) [%]	Activity (Helix pomatia) [%]	Activity [1] [%]	Ki (Alpha-galactosidase) [µM]	Activity (Canavalia ensiformis) [%]	Activity [2] [%]	Activity [3] [%]	Ki [4] [µM]	Compound
75.7	98.7	109	40.8	72.2	5.4	39.1	–	O=C1OC[C@@H]2C[C@H](O)[C@@H](CO)N12
96.1	100	114	–	76.8	91.9	97	–	O=P(O)(O)OC[C@@H]1C[C@H](O)[C@@H](CO)N1

From ChEMBL document CHEMBL3132787, “Polyhydroxylated pyrrolidine and 2-oxapyrrolizidine as glycosidase inhibitors” (Medchemcomm, 2013)
